In brackets after ≈: the same amount, converted by molar mass.

Common to all, as to type: cell-based
Assay [1] deals with U937 human histiocytic lymphomas cell line. The experiment in a line: total mRNA assay (GENEPLATE, YOYO-1), U937 cells. The conditions noted are these: mean ± SD, n = 4; for IC50: Homo sapiens, U-937. How it is done:
(§1) The CaR-1 human colon cancer cell line (JCRB0207) was a gift from Dr. K. Miyazaki (Kihara Institute for Biological Research, Yokohama, Japan). YOYO-1™ was purchased from Molecular Probes (Eugene, Oreg.). All other chemicals were purchased from Sigma (St. Louis, Mis.). Oligonucleotides were synthesized by a synthesizer (Applied Biosystems, San Jose, Calif.) according to the manufacturer's protocol.
(§2) U937, HL-60 and CaR-1 cells were grown in RPMI 1640 containing 50 units/ml penicillin, 50 μg/ml streptomycin, and 10% FCS at 37° C. in 5% CO2, 95% air. HepG2 cells were grown in Eagle's minimum essential medium (MEM) with 0.1 mM nonessential amino acids, 1 mM sodium pyruvate and Earle's balance solution (BSS). Floating cells were subcultured two to three times a week and adherent cells were removed by trypsinization and subcultured two to four times a month. Initial cell viability was always more than 95% as assessed by the exclusion of trypan blue (Ausubel et al., Current Protocols in Molecular Biology, John Wiley & Sons 1988; 11.5.1-11.5.2). The number of cells was determined in a hemocytometer.
The drugs were tested at 0.001, 0.01, 0.1, 1.0 and 10× PPC. Vinblastine was occasionally tested at 100× PPC.
(§3) Detailed procedures were described in our previous publication (Tominaga et al., Clin. Chem. 1996; 42:11, 1750-1757). In brief, 1 ml of cell suspension containing 5×10^5 cells were plated to each well of 12-well tissue culture plates for various periods, and each drug was exposed continuously or for two hours. Harvested cultured cells were washed with PBS one to two times. Cells were then resuspended in 200 μl of diethylpyrocarbonate (DEPC) -treated lysis buffer (10 mM Tris, pH7.5, 1 mM EDTA, 0.5M NaCl, 0.5% NP-40 and 20 mM VRC for five minutes on ice, then immediately centrifuged at 15,000 xg at 4° C. for five minutes. Fifty μl each of the supernatant was applied to the GENEPLATE™ (oligonucleotide-immobilized microplate) (Mitsuhashi et al., Nature 1992, 357:519-520). After one hour incubation at room temperature, unbound non-mRNA was removed by aspiration and washed with a low salt buffer (10 mM Tris, pH 7.6, 1 mM EDTA, 0.1 M naCl) three times. Fifty μl of YOYO-1™ in the final dilution of 1:1000 in TAE buffer (40 mM Tris-acetate, pH 8.0, 1 mM EDTA) was added to each well, and the fluorescence intensity of each well was measured by a fluorescent plate reader (CytoFlour™ 2300, Millipore, Bedford, Mass.) with excitation and emission wavelengths of 485 nm (bandwidth 20 nm) and 530 nm (bandwidth 25 nm), respectively, as previously described (Glazer et al., Nature 1992;359:859-861 and Ogura et al., Biotechniques 1994; 18:231-232).
(§4) Chemosensitivity was assessed for both continuous drug exposure and transient exposure (two hours). Total cytosolic poly(A)+ mRNA was measured as described in the Methods.
(§5) U937 cells were seeded at a density of 1×10^6 cells/ml in RPMI containing 10% FCS in a 96-well plate for MTT assay (.gradient.,.quadrature.) and a 24-well plate for the mRNA assay (.circle-solid.,.tangle-soliddn.). […] The values indicated in the means±standard error of triplicate determinations from a single experiment. Similar results were reproduced in more than three independent experiments (data not shown). […] MTT and mRNA assays were carried out as described in the Methods. The data obtained from the three-day MTT assay with 1× PPC (x-axis) were compared with those of the 12-hour mRNA assay with 10× PPC (y-axis). FIG. 8D (Total) is a mixture of FIGS. 8A-8C. Each point represents the means of triplicate determinations.

The subject of assay [2] is HL-60 human promyelocytic leukemia cell line. Put plainly: total mRNA assay (GENEPLATE, YOYO-1), HL-60 cells. The conditions noted are these: mean ± SD, n = 4; for IC50: Homo sapiens, HL-60. How it is done: as §1, §2
(§6) The following drugs have been tested using the reported peak plasma concentrations (PPCs) achieved during intravenous administration of clinical doses (Werner et al., Cancer Treat Rep 1986; 70:1379-1382). […] The drugs were tested at 0.001, 0.01, 0.1, 1.0 and 10× PPC. Vinblastine was occasionally tested at 100× PPC.
as §3, §4

In assay [3] the test system is CaR-1 human colon cancer cell line. Put plainly: total mRNA assay (GENEPLATE, YOYO-1), CaR-1 cells. The conditions noted are these: mean ± SD, n = 4; for IC50: Homo sapiens. How it is done:
as §1, §2, §6, §3, §4

The test system of assay [4] is HL-60 human promyelocytic leukemia cell line. Put plainly: MTT assay, HL-60 cells. The conditions noted are these: mean ± SD, n = 4; for IC50: Homo sapiens, HL-60. How it is done: as §1, §2, §6
(§7) Cells were suspended in medium supplemented with 10% FCS, and 100 μl of single cell suspension containing 1×10^5 cells were added to the individual wells on 96 well microtiter plates. One hundred μl of anticancer drugs were added to each well to give the final concentrations as indicated above. The plates were incubated at 37° C. in a humidified atmosphere containing 5% CO2 in air for various periods. Twenty μl of 0.25% MTT in PBS was added to each well, and plates were incubated for an additional three hours. After centrifugation, supernatant solutions were removed and 200 μl of dimethyl sulfoxide were added to dissolve formazon products, and the plates were shaken for five minutes on a plate shaker (IS-963, Tomy, Palo Alto, Calif.). The absorbance of the well was read on a microplate spectrophotometer (Thermo max, Molecular Device, Mountain View, Calif.) using wavelength at 560 nm.
as §4
A general note: Formazan colour is commonly taken as a measure of viable cells.

Assay [5] deals with HepG2 human hepatocellular line. The experiment in a line: MTT assay, HepG2 cells. The conditions noted are these: mean ± SD, n = 4; for IC50: Homo sapiens. How it is done: as §1, §2, §6, §7, §4
In assay [6] the test system is U937 human histiocytic lymphomas cell line. The experiment in a line: MTT assay, U937 cells. The settings on record: for IC50 (MTT) / IC50: mean ± SD, n = 4; for IC50: Homo sapiens, U-937. How it is done: as §1, §2, §6, §7, §4, §5
The subject of assay [7] is CaR-1 human colon cancer cell line. The experiment in a line: MTT assay, CaR-1 cells. The conditions noted are these: mean ± SD, n = 4; for IC50: Homo sapiens. How it is done: as §1, §2, §6, §7, §4
Assay [8] has as its system HepG2 human hepatocellular line. Put plainly: total mRNA assay (GENEPLATE, YOYO-1), HepG2 cells. The conditions noted are these: mean ± SD, n = 4; for IC50: Homo sapiens. How it is done: as §1, §2, §6, §3, §4
Where [9] appears, read: U937, continuous exposure 72 hours.
The mark [10] stands for this setting: U937, transient exposure 2 hours.
The mark [11] stands for this setting: HL60, continuous exposure 72 hours.
[12] abbreviates: HL60, transient exposure 2 hours.
Setting [13] is: CaR-1, continuous exposure 72 hours.
Setting [14] is: CaR-1, transient exposure 2 hours.
Setting [15] is: HepG2, continuous exposure, printed 82 hours.
The mark [16] stands for this setting: HepG2, transient exposure 2 hours.

As for `N.N.[Cl][Pt][Cl]` [Cisplatin, cisplatin], the “IC50 (mRNA)” value is 1.58 ± 0.39 µg/mL in assay [1] (setting [9]); 18.52 ± 4.69 µg/mL in assay [1] (setting [10]); 1.21 µg/mL in assay [2] (setting [11]); 9.30 µg/mL in assay [2] (setting [12]); 3.09 ± 0.34 µg/mL in assay [3] (setting [13]); greater than 20 µg/mL in assay [3] (setting [14]). Further, the “IC50 (mRNA)” value was 9.81 ± 0.64 µg/mL in assay [8] (setting [15]) and greater than 20 µg/mL in assay [8] (setting [16]). Also, the “IC50 (MTT)” value in assay [4] (setting [11]) is 1.14 ± 0.01 µg/mL; in assay [4] (setting [12]), 12.68 ± 0.30 µg/mL; in assay [5] (setting [15]), 8.86 ± 0.40 µg/mL; in assay [5] (setting [16]), greater than 20 µg/mL; in assay [6] (setting [9]), 1.77 ± 0.05 µg/mL; in assay [6] (setting [10]) it was 22.65 ± 0.03 µg/mL. Moreover, the “IC50 (MTT)” value in assay [7] (setting [13]) is 3.08 ± 0.54 µg/mL; in assay [7] (setting [14]), greater than 20 µg/mL. Further, in assay [6] (U937, 10× PPC, continuous exposure), the “time after drug treatment at which similar reduction was observed, MTT assay” value was found to be 48 h.

The term IC50 denotes the midpoint of a concentration-inhibition curve. A high value points to a need for much substance. `CO[C@@]12[C@H](COC(N)=O)C3=C(C(=O)C(C)=C(N)C3=O)N1C[C@@H]1N[C@@H]12` [Mitomycin C, mitomycin C]: the IC50 was determined as 0.23 ± 0.03 µg/mL (≈ 0.688 µM) in assay [1] (setting [9]); 2.01 ± 0.11 µg/mL (≈ 6.01 µM) in assay [1] (setting [10]); 0.22 ± 0.01 µg/mL (≈ 0.658 µM) in assay [2] (setting [11]); 2.29 µg/mL (≈ 6.85 µM) in assay [2] (setting [12]); 2 ± 0.16 µg/mL (≈ 5.98 µM) in assay [3] (setting [13]); 21.3 ± 0.95 µg/mL (≈ 63.7 µM) in assay [3] (setting [14]). In addition, the concentration for half-maximal inhibition (IC50) in assay [4] (setting [11]) was determined as 0.045 µg/mL (≈ 0.135 µM); in assay [4] (setting [12]), 1.34 ± 0.01 µg/mL (≈ 4.01 µM); in assay [5] (setting [15]) it was 2.08 ± 0.09 µg/mL (≈ 6.22 µM); in assay [5] (setting [16]) it was 24.2 ± 0.81 µg/mL (≈ 72.4 µM); in assay [6] (setting [9]), 0.29 ± 0.01 µg/mL (≈ 0.867 µM); in assay [6] (setting [10]), 2.46 ± 0.04 µg/mL (≈ 7.36 µM). Moreover, the IC50 in assay [7] (setting [13]) is 2.12 ± 0.08 µg/mL (≈ 6.34 µM); in assay [7] (setting [14]), 21.3 µg/mL (≈ 63.7 µM); in assay [8] (setting [15]) it was 1.89 ± 0.06 µg/mL (≈ 5.65 µM); in assay [8] (setting [16]) it was 36.9 µg/mL (≈ 110 µM).

Take `CC[C@]1(O)C[C@@H]2CN(CCc3c([nH]c4ccccc34)[C@@](C(=O)OC)(c3cc4c(cc3OC)N(C)[C@H]3[C@@](O)(C(=O)OC)[C@H](OC(C)=O)[C@]5(CC)C=CCN6CC[C@]43[C@@H]65)C2)C1` [Vinblastine, vinblastine]: the IC50 in assay [1] (setting [9]) is less than 0.0005 µg/mL; in assay [1] (setting [10]) it was 0.029 ± 0.001 µg/mL (≈ 0.0358 µM); in assay [2] (setting [11]), less than 0.0005 µg/mL; in assay [2] (setting [12]), 0.031 µg/mL (≈ 0.0382 µM); in assay [3] (setting [13]), 34.9 ± 4.8 µg/mL (≈ 43 µM); in assay [3] (setting [14]), greater than 50 µg/mL. The IC50 in assay [4] (setting [11]) is less than 0.0005 µg/mL; in assay [4] (setting [12]), 0.026 ± 0.001 µg/mL (≈ 0.0321 µM); in assay [5] (setting [15]) it was 32.6 ± 8.46 µg/mL (≈ 40.2 µM); in assay [5] (setting [16]), greater than 50 µg/mL; in assay [6] (setting [9]), less than 0.0005 µg/mL; in assay [6] (setting [10]), 0.034 ± 0.003 µg/mL (≈ 0.0419 µM). The half-inhibitory concentration (IC50) in assay [7] (setting [13]) was 22.2 ± 14.4 µg/mL (≈ 27.3 µM); in assay [7] (setting [14]), greater than 50 µg/mL; in assay [8] (setting [15]), 3.45 ± 0.63 µg/mL (≈ 4.25 µM); in assay [8] (setting [16]), 34.6 ± 1.75 µg/mL (≈ 42.7 µM).

For the origin of these results see patent publication US5976797A, “Method for quantifying total mRNA with poly(A)-complementary oligonucleotide-immobilized microtiter plate” (Hitachi Chemical Co., Ltd., priority 1996, dated 1999).
